Results published in the NIST ThermoML archive (doi:10.1021/je200651r).
Numbers after ± are expanded uncertainties.

Experiments:
[1] = refractive index (Na D-line) (dimensionless); conditions: 298.15 K; 101.33 kPa; Liquid; Standard Abbe refractometry
[2] = Liquid, Manometric method

Row | Structure (SMILES) | refractive index [1] | vapor or sublimation pressure ([2]; 343.15 K) [kPa] | vapor or sublimation pressure ([2]; 353.15 K) [kPa] | vapor or sublimation pressure ([2]; 363.15 K) [kPa]
1 | ClCCCCl [1,3-dichloropropane] | 1.4462 ± 0.0008 | 18.31 ± 0.19 | 26.84 ± 0.22 | 38.65 ± 0.27
2 | CC[N+](=O)[O-] [nitroethane] | 1.3898 ± 0.0009 | 22.46 ± 0.23 | 32.84 ± 0.29 | 47.13 ± 0.37
3 | C[N+](=O)[O-] [nitromethane] | 1.3794 ± 0.0009 | 34.93 ± 0.31 | 50.14 ± 0.41 | 70.81 ± 0.53
